Data on eight compounds can be found in publication PMC8161390, “Salinity Alters Toxicity of Commonly Used Pesticides in a Model Euryhaline Fish Species (Menidia beryllina)” (Toxics, 2021).

The nature of data set [1]: Inland Silverside embryo-to-larva 12-day exposure bioassay (mortality, dose-response). Particulars: Menidia beryllina (Inland Silverside), in vivo, <24 hpf embryos to 96 hph larvae, nominal concentrations. Here is the method:
(§1) Inland Silverside embryos were removed from the spawning substrate, assessed for fertilization with a VWR VistaVision Dissecting Scope (VWR International, Radnor, PA, USA), and randomly placed in exposure wells with 1 mL of clean artificial seawater (ASW) made from reverse osmosis water and Instant Ocean Sea Salt (Spectrum Brands, Blacksburg, VA, USA). Once all well plates (Supplemental Material and Video S1) were loaded, each test was initiated by pouring the appropriate exposure solution into the well plate until embryos were submerged in 8 mL of exposure solution. Organisms were exposed from <24 h post fertilization (hpf) as embryos to 96 h post hatch (hph) larvae for a total exposure period of 12 days. […] After hatching, fish larvae, which still had their yolk sacs, were fed Gemma Microdiet (Skretting, Westbrook, ME, USA) once per day and were allowed to feed for at least two hours prior to water changes. […] Temperature, pH, salinity, and dissolved oxygen were measured daily before and after water changes using a YSI Professional Plus Quatro water quality meter (YSI Incorporated, Yellow Springs, OH, USA) and API Ammonia Test Kit and can be found in Table S1.
(§2) This suite of chosen contaminants represents commonly used pesticides with a range of log KOW values, water solubilities, and target organs. Six concentrations (Table 1), including a solvent control, were assessed per test to determine the appropriate dose–response relationships. Initial test concentrations were determined from existing mortality data from the United State EPA ECOTOX database. Where testing on saltwater species was not available, freshwater data were used to supplement. […] The fourth concentration was selected based off existing mortality data and increased by one magnitude to the fifth concentration to ensure mortality. All lower concentrations were decreased by one subsequent magnitude to ensure an appropriate dose response could be achieved.
(§3) Chemical stock solutions were made at the start of each test from which new exposure solutions were made daily in ASW immediately prior to water changes. There were six replicates per concentration and two organisms per replicate. […] At the end of the exposure period, the final survival data were recorded, and larval fish were humanely sacrificed. Exposures were approved and conducted under the Oregon State University Institutional Animal Care and Use Committee (IACUC) protocol #0035.
(§4) Statistical analysis was conducted in R version 4.0 (Vienna, Austria) and R Studio version 1.3.1093 (Boston, MA, US). The dose–response analysis consisted of fitting two-parameter log-logistic models to all seven compounds at both salinities (14 fits in total) using maximum likelihood optimization in the package drc version 3.0-1 [42]. […] In the Monte Carlo procedure, the salinity treatments for all of the replicates in the dataset were permuted (keeping the sample sizes for each salinity the same), then new dose–response curves were fit to each salinity treatment. The p-value testing whether the observed difference in LC10 and LC50 values was greater than that expected by random chance was calculated as the proportion of Monte Carlo simulations in which the difference in LC values was greater than the original observed difference. […] All values are reported as the mean ± standard error. All statistical analysis and dose–response curves were made and reported with nominal concentrations.

The subject of data set [2] is Inland Silverside (Menidia beryllina). The description is as above. Conditions: <24 hpf embryos to 96 hph larvae, 12 days, nominal concentrations; for 5 PSU LC10: 5 PSU salinity; for 15 PSU LC10: 15 PSU salinity. Here is the method:
as §1, §2, §3, §4

The conditions of data set [3]: cited from earlier work.
Details of data set [4]: method as in earlier work. Conditions: cited from earlier work.
The test system of data set [5] is Rainbow Trout (Oncorhynchus mykiss). Conditions: freshwater; 96-h acute; range of minimum to maximum reported LC50 values; ref U.S. EPA ECOTOX database; cited from earlier work.
Details of data set [6]: method as in PMID 18829159. Conditions: reported environmental persistence; cited from earlier work.
The conditions of data set [7]: irradiation of a 300 W mercury bulb, cited from earlier work.

Molecules are shown by their SMILES. Values after ≈ are worked out from the molar mass of the structure shown. Where two headings read alike, the source gives them in different places.

`Cc1c(COC(=O)[C@@H]2[C@H](/C=C(\Cl)C(F)(F)F)C2(C)C)cccc1-c1ccccc1` (racemic) [Bifenthrin, bifenthrin]: the 50% lethal concentration (LC50) (in general, the concentration lethal to half of the exposed cells or organisms) at 12 days was 0.16 ng/mL (≈ 0.000378 µM) in data set [1] (5 PSU LC50, 5 PSU salinity) and 0.12 ng/mL (≈ 0.000284 µM) in data set [1] (15 PSU LC50, 15 PSU salinity). The “5 PSU LC10” value in data set [2] came out at 0.0227 ng/mL. The “15 PSU LC10” value in data set [2] amounted to 0.00533 ng/mL. In data set [3], the “log KOW” value is given as 6.6. Further, the “Water Solubility” value in data set [4] is 0.1 µg/mL. Also, the “FW LC50” value in data set [5] is 0.15 to 14.7 ng/mL.

In the case of `CCOP(=S)(OCC)Oc1nc(Cl)c(Cl)cc1Cl` [Chlorpyrifos, chlorpyrifos], the LC50 at 12 days amounted to 8.03 ng/mL (≈ 0.0229 µM) in data set [1] (5 PSU LC50, 5 PSU salinity) and 2.4 ng/mL (≈ 0.00685 µM) in data set [1] (15 PSU LC50, 15 PSU salinity). Moreover, the “5 PSU LC10” value in data set [2] was 0.137 ng/mL. In addition, the “15 PSU LC10” value in data set [2] was 0.0393 ng/mL. In addition, the “log KOW” value in data set [3] is listed as 4.7. The “FW LC50” value in data set [5] is below 1 to 301 ng/mL.

`Nc1c(Cl)cc([N+](=O)[O-])cc1Cl` [Dicloran, dicloran]: in data set [3], the “log KOW” value is listed as 2.8. In addition, in data set [4], the “Water Solubility” value is 6.3 µg/mL.

`CCCCC(C#N)(Cn1cncn1)c1ccc(Cl)cc1` (centres unmarked) [Myclobutanil, myclobutanil]: the LC50 at 12 days is 3760 ng/mL (≈ 13 µM) in data set [1] (5 PSU LC50, 5 PSU salinity) and 1550 ng/mL (≈ 5.37 µM) in data set [1] (15 PSU LC50, 15 PSU salinity). Also, the “log KOW” value in data set [3] is 2.8. Further, the “Water Solubility” value in data set [4] was 132 µg/mL. For the same compound, the “FW LC50” value in data set [5] was 4200 to 5270 ng/mL.

For `C[n+]1ccc(-c2cc[n+](C)cc2)cc1` [Paraquat, paraquat dichloride hydrate], the LC50 at 12 days in data set [1] (5 PSU LC50, 5 PSU salinity) amounted to 37500 ng/mL; in data set [1] (15 PSU LC50, 15 PSU salinity) it was 18100 ng/mL. Besides, the “5 PSU LC10” value in data set [2] worked out at 54.7 ng/mL. Also, the “15 PSU LC10” value in data set [2] worked out at 24.5 ng/mL. Further, the “log KOW” value in data set [3] is reported as −4.5. Besides, in data set [4], the “Water Solubility” value is 620000 µg/mL. In data set [6], the environmental half-life entry was “around two”. In addition, the “FW LC50” value in data set [5] is 15000 to 38680 ng/mL.

In data set [1] (5 PSU LC50, 5 PSU salinity), `CCCC(Cn1cncn1)c1ccc(Cl)cc1Cl` (centres unmarked) [Penconazole, penconazole] had an LC50 at 12 days of 107 ng/mL (≈ 0.377 µM). In addition, the LC50 at 12 days in data set [1] (15 PSU LC50, 15 PSU salinity) is 20.2 ng/mL (≈ 0.0711 µM). In data set [2], the “5 PSU LC10” value came out at 0.235 ng/mL and the “15 PSU LC10” value came to 0.0244 ng/mL. Further, the “log KOW” value in data set [3] is listed as 3.7.

For `CC(C)(C)C(=O)C(Oc1ccc(Cl)cc1)n1cncn1` (centres unmarked) [Triadimefon, triadimefon], the “log KOW” value in data set [3] is 3.2. The “Water Solubility” value in data set [4] was 64 µg/mL. Also, the figures for the half-life in data set [7] (distilled water) and in data set [7] (seawater) were 0.9 h and 2.97 h, respectively.

Regarding `CC1(C)C(C=C(Cl)Cl)C1C(=O)OCc1cccc(Oc2ccccc2)c1` (centres unmarked) [permethrin], in data set [3] (values quoted in discussion of Delta smelt study), the “log KOW” value is on record as 6.9.
